Experimental data taken from patent US8211935B2, “Heterocyclic derivatives for modulation of calcium channels” (Vertex Pharmaceuticals Incorporated, priority 2004, dated 2012).

Molecular target: T1, CaV2.2 (Homo sapiens, UniProt Q00975)
T1 construct: expressed in transfected cells; host or cells: HEK293
Experiment: VIPR optical membrane potential assay with electrical stimulation
Format: cell-based
Settings: not given
Experimental: Antagonist properties of test compounds were assessed as follows. Cells expressing the CaV of interest were placed into microtiter plates. After an incubation period, the cells were stained with fluorescent dyes sensitive to the transmembrane potential. The test compounds were added to the microtiter plate. The cells were stimulated with electrical means to evoke a CaV dependent membrane potential change from unblocked channels, which was detected and measured with trans-membrane potential-sensitive dyes. Antagonists were detected as a decreased membrane potential response to the stimulus.
VIPR® Optical Membrane Potential Assay Method with Electrical Stimulation
The following is an example of how CaV2.2 inhibition activity is measured using the optical membrane potential method. Other subtypes are performed in an analogous mode in a cell line expressing the CaV of interest.
HEK293 cells stably expressing CaV2.2 are plated into 96-well microtiter plates. After an appropriate incubation period, the cells are stained with the voltage sensitive dyes CC2-DMPE/DiSBAC2(3) as follows.
2×CC2-DMPE=20 μM CC2-DMPE: 10 mM CC2-DMPE is vortexed with an equivalent volume of 10% Pluronic, followed by vortexing in required amount of HBSS containing 10 mM HEPES. Each cell plate will require 5 mL of 2×CC2-DMPE. 50 μL of 2×CC2-DMPE is added to wells containing washed cells, resulting in a 10 μM final staining concentration. The cells are stained for 30 minutes in the dark at RT.
Vortex in required amount of Bath X with beta-cyclodextrin. Each 96 well cell plate will require 5 ml of 2×CC2DMPE. Wash plate with ELx405 with Bath X, leaving a residual volume of 50 μL/well. Add 50 μL of 2×CC2DMPE & DISBAC6(3) to each well. Stain for 30 minutes in the dark at RT.
Allow solution to sit for 10 minutes. Slowly mix in 370 mM BaCl2. This solution can be used to solvate compound plates. Note that compound plates are made at 1.5× drug concentration and not the usual 2×. Wash CC2 stained plate, again, leaving residual volume of 50 pt. Add 100 uL/well of the AY17 solution. Stain for 15 minutes in the dark at RT. Run plate on the optical reader.
The instrument comprises a microtiter plate handler, an optical system for exciting the coumarin dye while simultaneously recording the coumarin and oxonol emissions, a waveform generator, a current- or voltage-controlled amplifier, and a device for inserting electrodes in well. Under integrated computer control, this instrument passes user-programmed electrical stimulus protocols to cells within the wells of the microtiter plate.
Insert or use electrodes into each well to be assayed.
Use the current-controlled amplifier to deliver stimulation wave pulses for 3-5 s. Two seconds of pre-stimulus recording are performed to obtain the un-stimulated intensities. Five seconds of post-stimulation recording are performed to examine the relaxation to the resting state.
Data are analyzed and reported as normalized ratios of background-subtracted emission intensities measured in the 460 nm and 580 nm channels. Background intensities are then subtracted from each assay channel. Background intensities are obtained by measuring the emission intensities during the same time periods from identically treated assay wells in which there are no cells. The response as a function of time is then reported as the ratios obtained using the following formula: […]
The data is further reduced by calculating the initial (Ri) and final (Rf) ratios. These are the average ratio values during part or all of the pre-stimulation period, and during sample points during the stimulation period. The response to the stimulus R=Rf/Ri is then calculated.
Control responses are obtained by performing assays in the presence of a compound with the desired properties (positive control), such as mibefradil, and in the absence of pharmacological agents (negative control). Responses to the negative (N) and positive (P) controls are calculated as above.

T1 sequence (Q00975 whole entry): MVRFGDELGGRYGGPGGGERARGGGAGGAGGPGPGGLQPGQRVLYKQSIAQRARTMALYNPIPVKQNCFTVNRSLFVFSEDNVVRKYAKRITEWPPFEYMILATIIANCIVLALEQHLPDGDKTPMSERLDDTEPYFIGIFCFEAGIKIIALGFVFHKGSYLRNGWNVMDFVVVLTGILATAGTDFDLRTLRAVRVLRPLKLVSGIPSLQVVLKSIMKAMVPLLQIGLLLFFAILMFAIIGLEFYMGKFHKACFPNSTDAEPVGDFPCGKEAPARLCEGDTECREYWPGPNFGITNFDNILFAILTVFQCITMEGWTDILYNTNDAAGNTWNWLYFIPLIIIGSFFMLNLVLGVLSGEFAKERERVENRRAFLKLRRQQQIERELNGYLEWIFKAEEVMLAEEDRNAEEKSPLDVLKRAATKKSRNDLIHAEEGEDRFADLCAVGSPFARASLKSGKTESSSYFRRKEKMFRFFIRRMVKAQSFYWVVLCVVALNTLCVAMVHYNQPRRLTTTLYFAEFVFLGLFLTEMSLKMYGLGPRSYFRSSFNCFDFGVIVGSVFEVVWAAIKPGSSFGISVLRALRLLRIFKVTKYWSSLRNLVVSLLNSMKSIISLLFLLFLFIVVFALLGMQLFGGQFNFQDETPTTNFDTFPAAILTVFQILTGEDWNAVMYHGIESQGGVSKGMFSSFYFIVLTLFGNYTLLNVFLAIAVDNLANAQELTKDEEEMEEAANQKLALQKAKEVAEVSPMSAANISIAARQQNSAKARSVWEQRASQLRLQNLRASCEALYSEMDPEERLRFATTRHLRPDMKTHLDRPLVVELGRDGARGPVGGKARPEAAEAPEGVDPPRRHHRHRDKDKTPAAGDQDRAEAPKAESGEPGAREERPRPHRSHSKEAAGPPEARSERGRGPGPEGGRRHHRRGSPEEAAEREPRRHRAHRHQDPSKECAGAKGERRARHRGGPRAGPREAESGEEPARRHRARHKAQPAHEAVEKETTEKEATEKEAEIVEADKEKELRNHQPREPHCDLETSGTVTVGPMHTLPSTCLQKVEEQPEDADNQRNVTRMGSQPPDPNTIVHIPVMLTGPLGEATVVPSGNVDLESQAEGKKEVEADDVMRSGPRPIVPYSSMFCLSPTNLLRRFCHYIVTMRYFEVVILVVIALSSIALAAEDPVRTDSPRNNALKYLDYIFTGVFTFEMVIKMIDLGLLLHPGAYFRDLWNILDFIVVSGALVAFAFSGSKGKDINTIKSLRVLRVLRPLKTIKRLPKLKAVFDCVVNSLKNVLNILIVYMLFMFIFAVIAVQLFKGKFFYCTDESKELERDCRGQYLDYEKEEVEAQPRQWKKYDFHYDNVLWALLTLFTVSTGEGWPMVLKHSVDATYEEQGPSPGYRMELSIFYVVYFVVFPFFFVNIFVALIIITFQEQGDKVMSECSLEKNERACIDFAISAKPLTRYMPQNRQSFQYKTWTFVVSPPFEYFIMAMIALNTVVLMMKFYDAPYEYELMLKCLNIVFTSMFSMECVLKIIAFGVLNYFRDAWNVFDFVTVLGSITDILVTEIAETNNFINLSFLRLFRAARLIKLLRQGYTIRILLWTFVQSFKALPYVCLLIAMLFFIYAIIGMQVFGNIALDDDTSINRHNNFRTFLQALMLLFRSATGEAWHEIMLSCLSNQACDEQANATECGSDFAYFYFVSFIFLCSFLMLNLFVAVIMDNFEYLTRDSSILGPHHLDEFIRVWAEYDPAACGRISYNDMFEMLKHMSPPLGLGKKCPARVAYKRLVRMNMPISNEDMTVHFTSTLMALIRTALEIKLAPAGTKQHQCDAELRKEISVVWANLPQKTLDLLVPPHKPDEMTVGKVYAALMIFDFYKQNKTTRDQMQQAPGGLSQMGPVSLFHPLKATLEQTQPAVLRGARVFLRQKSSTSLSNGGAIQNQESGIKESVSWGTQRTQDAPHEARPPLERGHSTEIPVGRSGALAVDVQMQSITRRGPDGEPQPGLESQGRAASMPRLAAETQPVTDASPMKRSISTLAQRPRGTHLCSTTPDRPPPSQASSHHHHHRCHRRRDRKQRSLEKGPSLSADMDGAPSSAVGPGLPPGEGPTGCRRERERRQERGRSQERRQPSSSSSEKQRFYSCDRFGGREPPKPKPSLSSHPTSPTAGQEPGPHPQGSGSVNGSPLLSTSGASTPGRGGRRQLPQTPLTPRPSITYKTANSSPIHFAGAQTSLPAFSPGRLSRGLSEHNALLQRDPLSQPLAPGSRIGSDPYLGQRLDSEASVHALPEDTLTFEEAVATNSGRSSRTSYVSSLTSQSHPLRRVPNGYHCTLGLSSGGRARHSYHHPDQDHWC
T1 sequence (P54284 whole entry partner): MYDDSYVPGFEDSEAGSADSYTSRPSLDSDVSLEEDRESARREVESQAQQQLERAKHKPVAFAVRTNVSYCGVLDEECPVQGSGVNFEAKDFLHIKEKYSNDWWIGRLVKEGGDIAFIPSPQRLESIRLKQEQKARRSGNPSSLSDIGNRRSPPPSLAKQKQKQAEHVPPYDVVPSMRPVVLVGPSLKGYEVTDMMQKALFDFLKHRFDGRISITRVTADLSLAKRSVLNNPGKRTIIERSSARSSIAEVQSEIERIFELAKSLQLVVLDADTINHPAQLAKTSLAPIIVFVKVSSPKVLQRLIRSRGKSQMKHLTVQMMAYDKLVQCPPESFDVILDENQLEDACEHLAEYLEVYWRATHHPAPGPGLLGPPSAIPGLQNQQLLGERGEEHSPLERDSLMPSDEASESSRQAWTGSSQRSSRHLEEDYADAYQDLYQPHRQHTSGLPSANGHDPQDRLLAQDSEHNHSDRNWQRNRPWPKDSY
T1 sequence (P54289 25-946 partner limits assumed): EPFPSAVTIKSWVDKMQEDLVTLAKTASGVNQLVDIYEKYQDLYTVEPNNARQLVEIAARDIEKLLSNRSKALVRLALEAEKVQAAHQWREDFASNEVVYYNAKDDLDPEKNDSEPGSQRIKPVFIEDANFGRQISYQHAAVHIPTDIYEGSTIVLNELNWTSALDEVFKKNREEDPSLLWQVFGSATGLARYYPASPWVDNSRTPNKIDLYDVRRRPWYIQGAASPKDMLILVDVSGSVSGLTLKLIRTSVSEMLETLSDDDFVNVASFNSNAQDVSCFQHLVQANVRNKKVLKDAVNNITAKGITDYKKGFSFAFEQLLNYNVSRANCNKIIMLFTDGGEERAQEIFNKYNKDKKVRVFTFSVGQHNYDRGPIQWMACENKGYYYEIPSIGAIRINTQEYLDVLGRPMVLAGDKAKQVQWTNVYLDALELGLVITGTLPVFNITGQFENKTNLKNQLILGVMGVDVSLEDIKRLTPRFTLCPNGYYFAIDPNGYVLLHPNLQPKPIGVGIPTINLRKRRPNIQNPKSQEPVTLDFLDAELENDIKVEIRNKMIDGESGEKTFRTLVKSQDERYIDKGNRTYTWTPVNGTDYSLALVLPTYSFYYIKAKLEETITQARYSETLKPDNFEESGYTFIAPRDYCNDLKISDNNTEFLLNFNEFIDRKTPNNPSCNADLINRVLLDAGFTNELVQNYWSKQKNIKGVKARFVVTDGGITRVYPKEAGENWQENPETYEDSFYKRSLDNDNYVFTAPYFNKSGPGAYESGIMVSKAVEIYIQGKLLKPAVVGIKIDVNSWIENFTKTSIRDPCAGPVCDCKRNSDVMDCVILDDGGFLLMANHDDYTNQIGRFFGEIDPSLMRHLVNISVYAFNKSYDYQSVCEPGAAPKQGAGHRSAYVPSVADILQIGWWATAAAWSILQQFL
T1 sequence (P54289 947-1103 partner limits assumed): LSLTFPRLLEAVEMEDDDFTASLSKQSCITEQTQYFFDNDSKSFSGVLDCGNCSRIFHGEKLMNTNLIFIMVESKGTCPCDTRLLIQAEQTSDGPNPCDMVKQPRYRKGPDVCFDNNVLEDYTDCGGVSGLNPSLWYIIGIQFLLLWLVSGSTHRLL

SMILES	IC50
CC1CC(C)CN(S(=O)(=O)c2ccc3oc(C(=O)N4CCC5(CC4)OCCO5)cc3c2)C1 (centres unmarked) [compound 156]	< 5 µM
Cc1c(C(=O)N2CCC3(CC2)OCCO3)oc2ccc(S(=O)(=O)N3CCCCCC3)cc12 [compound 161]	5 to 20 µM
Cc1c(C(=O)N2CCC3(CC2)OCCO3)oc2ccc(S(=O)(=O)N3CCCCC3)cc12 [compound 173]	5 to 20 µM
O=C(c1cc2cc(S(=O)(=O)N3CCCCCC3)ccc2o1)N1CCC2(CC1)OCCO2 [compound 183]	5 to 20 µM

Same assay, conditions: Table 3, biological assay data; read-out: IC50

SMILES	IC50
Cc1c(C(=O)N2CCC(C)CC2)oc2ccc(S(=O)(=O)N3CCC(C)CC3)cc12 [compound 128]	5 to 20 µM
Cc1c(C(=O)NCCN2CCOCC2)oc2ccc(S(=O)(=O)N3CCC(C)CC3)cc12 [compound 129]	5 to 20 µM
CCNC(=O)c1cc2cc(S(=O)(=O)N3CCC(C)CC3)ccc2[nH]1 [compound 130]	< 5 µM
CCNC(=O)c1cc2cc(S(=O)(=O)N3CCC(C)CC3)ccc2o1 [compound 131]	< 5 µM
Cc1c(C(=O)NC2CCCCC2C)oc2ccc(S(=O)(=O)N3CCCC3)cc12 (centres unmarked) [compound 132]	< 20 µM
Cc1c(C(=O)NC2CC2)oc2ccc(S(=O)(=O)Nc3nncs3)cc12 [compound 133]	< 20 µM
Cc1c(C(=O)NCCCN2CCCC2=O)oc2ccc(S(=O)(=O)N3CC(C)CC(C)C3)cc12 (centres unmarked) [compound 134]	5 to 20 µM
CN1CCN(C(=O)c2cc3cc(S(=O)(=O)N4CCCCCC4)ccc3n2S(=O)(=O)c2ccccc2)CC1 [compound 135]	5 to 20 µM
Cc1c(C(=O)NCCc2ccccc2)oc2ccc(S(=O)(=O)N3CCC4(CC3)OCCO4)cc12 [compound 136]	5 to 20 µM
CC1CC(C)CN(S(=O)(=O)c2ccc3oc(C(=O)N(C(C)C)C(C)C)cc3c2)C1 (centres unmarked) [compound 137]	< 5 µM
CC1CCN(S(=O)(=O)c2ccc3oc(C(=O)N(C(C)C)C(C)C)cc3c2)CC1 [compound 138]	< 5 µM
CC1CCN(S(=O)(=O)c2ccc3cc(C(=O)NC4CC4)[nH]c3c2)CC1 [compound 139]	5 to 20 µM
CC1CCN(S(=O)(=O)c2ccc3[nH]c(C(=O)N(C(C)C)C(C)C)cc3c2)CC1 [compound 140]	< 5 µM
CCCCN(C)C(=O)c1cc2cc(S(=O)(=O)N3CCC(C)CC3)ccc2[nH]1 [compound 141]	< 5 µM
CC1CCN(S(=O)(=O)c2ccc3[nH]c(C(=O)NC(C)C)cc3c2)CC1 [compound 142]	< 5 µM
CC1CC(C)CN(S(=O)(=O)c2ccc3[nH]c(C(=O)N4CCCC4)cc3c2)C1 (centres unmarked) [compound 143]	5 to 20 µM
Cc1c(C(=O)N2CC(C)CC(C)C2)oc2ccc(S(=O)(=O)N3CCOCC3)cc12 (centres unmarked) [compound 144]	5 to 20 µM
CNC(=O)c1oc2ccc(S(=O)(=O)N3CCCCCC3)cc2c1C [compound 145]	< 20 µM
Cc1c(C(=O)NC2CCCC2)[nH]c2ccc(S(=O)(=O)N3CCC(C)CC3)cc12 [compound 146]	< 5 µM
CC1CCN(C(=O)c2cc3cc(S(=O)(=O)N4CCC(C)CC4)ccc3[nH]2)CC1 [compound 147]	< 5 µM
Cc1c(C(=O)NC2CCCC2)oc2ccc(S(=O)(=O)N3CCC(C)CC3)cc12 [compound 148]	< 5 µM
Cc1c(C(=O)NCC2CCCO2)oc2ccc(S(=O)(=O)N3CCOCC3)cc12 (centres unmarked) [compound 149]	< 20 µM
CCNC(=O)c1oc2ccc(S(=O)(=O)N3CCCCCC3)cc2c1C [compound 150]	5 to 20 µM
Cc1ccc(S(=O)(=O)Nc2ccc3[nH]c(C(=O)NC4CC4)cc3c2)cc1 [compound 151]	5 to 20 µM
Cc1c(C(=O)N2CCN(C)CC2)oc2ccc(S(=O)(=O)N3CCCCCC3)cc12 [compound 152]	5 to 20 µM
Cc1c(C(=O)N2CCCCC2C)oc2ccc(S(=O)(=O)N3CC(C)CC(C)C3)cc12 (centres unmarked) [compound 153]	< 5 µM
Cc1c(C(=O)NCc2ccc(F)cc2)oc2ccc(S(=O)(=O)N3CCC(C)CC3)cc12 [compound 154]	5 to 20 µM
CNC(=O)c1oc2ccc(S(=O)(=O)N3CCCCC3)cc2c1C [compound 155]	< 20 µM

SMILES	IC50
Cc1c(C(=O)NC(C)C)oc2ccc(S(=O)(=O)N3CCC(F)CC3)cc12 [compound 157]	5 to 20 µM
CCOC(=O)N1CCN(C(=O)c2cc3cc(S(=O)(=O)N4CCC(C)CC4)ccc3o2)CC1 [compound 158]	< 20 µM
Cc1c(C(=O)N(C(C)C)C(C)C)oc2ccc(S(=O)(=O)N3CCCCCC3)cc12 [compound 159]	5 to 20 µM
Cc1c(C(=O)N2CCN(C)CC2)[nH]c2ccc(S(=O)(=O)N3CC(C)CC(C)C3)cc12 (centres unmarked) [compound 160]	5 to 20 µM
CCN(CC)C(=O)c1oc2ccc(S(=O)(=O)N3CCOCC3)cc2c1C [compound 162]	< 20 µM
Cc1c(C(=O)N2CCC(C)CC2)oc2ccc(S(=O)(=O)N3CCOCC3)cc12 [compound 163]	< 20 µM
CCN(CC)S(=O)(=O)c1ccc2oc(C(=O)N3CC(C)CC(C)C3)c(C)c2c1 (centres unmarked) [compound 164]	< 5 µM
CN1CCN(C(=O)c2cc3cc(S(=O)(=O)N4CCCCCC4)ccc3o2)CC1 [compound 165]	5 to 20 µM
Cc1c(C(=O)NCC2CCOCC2)[nH]c2ccc(S(=O)(=O)N3CCC(C)CC3)cc12 [compound 166]	< 20 µM
COc1ccccc1CNC(=O)c1oc2ccc(S(=O)(=O)N3CCOCC3)cc2c1C [compound 167]	< 20 µM
CCN(CC)C(=O)c1[nH]c2ccc(S(=O)(=O)N3CCC(C)CC3)cc2c1C [compound 168]	5 to 20 µM
O=C(c1cc2cc(S(=O)(=O)N3CCCCCC3)ccc2o1)N1CCCCCC1 [compound 169]	< 5 µM
CC1CCCN(C(=O)c2cc3cc(S(=O)(=O)N4CCCCCC4)ccc3o2)C1 (centres unmarked) [compound 170]	< 5 µM
CC1CCCN(C(=O)c2cc3cc(S(=O)(=O)N4CC(C)CC(C)C4)ccc3[nH]2)C1 (centres unmarked) [compound 171]	< 5 µM
Cc1c(C(=O)NC2CCCC2)n(C)c2ccc(S(=O)(=O)N3CCC(C)CC3)cc12 [compound 174]	< 5 µM
CCOC(=O)C1CCN(C(=O)c2oc3ccc(S(=O)(=O)N4CCC(C)CC4)cc3c2C)CC1 [compound 176]	< 5 µM
Cc1c(C(=O)NC2CCCC2)oc2ccc(S(=O)(=O)N3CCCC(C)C3)cc12 (centres unmarked) [compound 177]	< 5 µM
Cc1c(C(=O)N2CCCC2)oc2ccc(S(=O)(=O)N3CCCC(C)C3)cc12 (centres unmarked) [compound 178]	5 to 20 µM
CCN(CC)S(=O)(=O)c1ccc2oc(C(=O)NCC3CCCO3)c(C)c2c1 (centres unmarked) [compound 179]	< 20 µM
Cc1c(C(=O)NCCCN2CCCC2)oc2ccc(S(=O)(=O)N3CC(C)CC(C)C3)cc12 (centres unmarked) [compound 180]	< 5 µM
CCCN(c1ccc2[nH]c(C(=O)NC3CC3)cc2c1)S(=O)(=O)c1ccccc1 [compound 181]	5 to 20 µM
Cc1c(C(=O)NC2CC2)oc2ccc(S(=O)(=O)NCc3ccc(F)cc3)cc12 [compound 182]	< 20 µM
CC1CC(C)CN(S(=O)(=O)c2ccc3oc(C(=O)N4CCCC4)cc3c2)C1 (centres unmarked) [compound 184]	< 5 µM
CC1CC(C)CN(S(=O)(=O)c2ccc3[nH]c(C(=O)N(C)Cc4ccccc4)cc3c2)C1 (centres unmarked) [compound 185]	< 5 µM
CCN(CC)C(=O)c1oc2ccc(S(=O)(=O)N(CC)CC)cc2c1C [compound 186]	< 20 µM
Cc1c(C(=O)NC2CCCC(C)C2C)oc2ccc(S(=O)(=O)N3CCOCC3)cc12 (centres unmarked) [compound 187]	5 to 20 µM
CC1CCN(S(=O)(=O)c2ccc3oc(C(=O)N4CCN(C)CC4)cc3c2)CC1 [compound 188]	5 to 20 µM
